Target: FAK (411-686, activated by Src and repurified) (Homo sapiens, UniProt Q05397)
Test: FAK Biochemical Assay (cell-free, HTRF)
Conditions: 10 μM ATP, read-out: 50% inhibitory concentrations (IC50) against focal adhesion kinase in the cell-free assay
Method: All experiments were performed in Greiner FIA black 384-well low volume plates.
A 5 μl mixture of a 200 nM Ulight-poly GT substrate (Perkin Elmer) and 10 μM ATP in Kinase buffer (50 mM Hepes pH 7.3, 10 mM MgCl2, 1 mM EGTA, 0.01% Tween-20, 2 mM dithriothreitol) was dispensed into the wells. […] of 90% DMSO/10% water containing the compounds to be tested was added to the wells. Kinase reaction was started by addition of 5 μl of 1 nM FAK (411-686, activated by Src and repurified) in Kinase buffer. After 50 min at RT the reaction was stopped with 5 μl of 40 mM EDTA in detection buffer (Perkin Elmer, Lance detection buffer) followed by a 5 μl addition of 8 nM LANCE Ei-W1024 anti-phosphotyrosine (PY20) antibody in detection buffer. After 1 h incubation at RT the plate was read on the Viewlux in HTRF mode.

Chain of FAK (411-686, activated by Src and repurified) (Q05397 411-686, species assumed): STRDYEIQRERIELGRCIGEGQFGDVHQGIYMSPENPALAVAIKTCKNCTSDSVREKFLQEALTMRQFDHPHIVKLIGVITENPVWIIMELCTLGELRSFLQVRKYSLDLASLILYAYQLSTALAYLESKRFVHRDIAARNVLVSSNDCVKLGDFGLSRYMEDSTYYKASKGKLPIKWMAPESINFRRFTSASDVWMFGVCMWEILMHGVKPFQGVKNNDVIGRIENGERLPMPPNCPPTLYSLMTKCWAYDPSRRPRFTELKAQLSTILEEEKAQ

SMILES	IC50
CNS(=O)(=O)c1ccccc1Nc1cc(Nc2ccccc2S(=O)(=O)NC)c(C(F)(F)F)cn1 [Compound 5]	> 10 µM
CN1Cc2cccc(Nc3cc(Nc4cccc5c4C(=O)N(C)C5)c(C(F)(F)F)cn3)c2C1=O [Compound 3, 7,7′-(5-(trifluoromethyl)pyridine-2,4-diyl)bis(azanediyl)bis(2-methylisoindolin-1-one)]	> 10 µM
